Data: patent publication US12589092B2, “Polycyclic compound acting as kinase inhibitor” (HANGZHOU INNOGATE PHARMA CO., LTD., priority 2020, dated 2026)
Read-outs that look alike come from different tables or passages of the source.

Key:
CDK2/CycA2 = CDK2/CycA2 (Homo sapiens, UniProt P24941); assay: CDK2 kinase activity inhibition assay (caliper mobility shift); assay type: biochemical; conditions: CDK2/CycA2 12 nM, ATP 39 μM; read-out: CDK2 kinase inhibitory activity (IC50)
Protocol: (§1) 1) CDK2, CDK4 and CDK6 Kinase Activity Inhibition Assay
(§2) In vitro enzymatic activity of the CDK isoforms CDK2/CycA2, CDK4/CycD3 and CDK6/cycD3 were measured using caliper mobility shift assay. Dissolve the compounds in DMSO and dilute them with corresponding kinase buffer (CDK2/CycA2 and CDK6/CycD3 were assayed with buffer conditions of 50 mM HEPES (pH 7.5), 10 mM MgCl2, 0.0015% Brij-35 and 2 mM dithiothreitol; CDK4/CycD3 was assayed with buffer condition of 20 mM HEPES (pH 7.5), 10 mM MgCl2, 0.01% Triton X-100 and 2 mM dithiothreitol). Add 5 μl of compound (10% DMSO) with 5 times the final concentration of the reaction to a 384-well plate. […] Collect conversion data on Caliper EZ Reader II (Caliper Life Sciences). Convert the conversion rate into inhibition rate data (% inhibition rate=(max−conversion rate)/(max−min)*100). […] Draw a curve with the concentration and inhibition rate of the compound as abscissa and ordinate, and use XLFit excel add-in version 4.3.1 software to fit the curve and calculate IC50.

CDK4/CycD3 = CDK4/CycD3 (Homo sapiens, UniProt P11802); assay: CDK4 kinase activity inhibition assay (caliper mobility shift); assay type: biochemical; conditions: CDK4/CycD3 10 nM, ATP 221 μM; read-out: CDK4 kinase inhibitory activity (IC50)
Sequence of CDK4/CycD3 (P11802 whole entry): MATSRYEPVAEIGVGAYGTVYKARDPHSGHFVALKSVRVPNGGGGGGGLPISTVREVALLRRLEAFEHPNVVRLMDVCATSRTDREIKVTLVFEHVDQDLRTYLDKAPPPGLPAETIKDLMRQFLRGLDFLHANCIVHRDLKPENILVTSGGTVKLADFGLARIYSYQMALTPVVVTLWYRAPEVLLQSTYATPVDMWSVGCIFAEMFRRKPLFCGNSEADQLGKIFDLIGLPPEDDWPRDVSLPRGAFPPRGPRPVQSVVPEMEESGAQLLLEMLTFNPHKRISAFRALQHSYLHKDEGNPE
Sequence of CDK4/CycD3 (P30281 whole entry partner): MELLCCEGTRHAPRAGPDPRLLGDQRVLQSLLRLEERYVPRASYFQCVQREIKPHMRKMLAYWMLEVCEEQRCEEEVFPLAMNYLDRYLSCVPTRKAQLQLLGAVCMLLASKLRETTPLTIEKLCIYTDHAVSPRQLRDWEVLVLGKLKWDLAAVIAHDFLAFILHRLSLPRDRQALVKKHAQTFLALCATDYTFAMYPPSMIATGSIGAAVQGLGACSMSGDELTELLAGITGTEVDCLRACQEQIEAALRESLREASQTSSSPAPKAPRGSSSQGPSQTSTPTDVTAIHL
Protocol: as §1, §2

CDK6/cycD3 = CDK6/cycD3 (Homo sapiens, UniProt Q00534); assay: CDK6 kinase activity inhibition assay (caliper mobility shift); assay type: biochemical; conditions: CDK6/cycD3 15 nM, ATP 800 μM; read-out: CDK6 kinase inhibitory activity (IC50)
Sequence of CDK6/cycD3 (Q00534 whole entry): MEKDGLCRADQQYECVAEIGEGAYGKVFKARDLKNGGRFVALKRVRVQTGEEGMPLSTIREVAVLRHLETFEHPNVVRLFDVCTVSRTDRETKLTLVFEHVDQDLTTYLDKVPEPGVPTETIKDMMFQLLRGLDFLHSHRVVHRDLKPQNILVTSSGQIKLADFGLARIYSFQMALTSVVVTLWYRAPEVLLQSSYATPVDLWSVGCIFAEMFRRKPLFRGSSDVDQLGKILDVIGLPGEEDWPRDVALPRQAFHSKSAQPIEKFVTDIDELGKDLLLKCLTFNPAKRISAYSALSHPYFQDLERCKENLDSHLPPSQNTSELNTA
Sequence of CDK6/cycD3 (P30281 whole entry partner): as the sequence (P30281 whole entry partner) above
Protocol: as §1, §2

CDK5/p35NCK = CDK5/p35NCK (Homo sapiens, UniProt Q00535); assay: CDK5 kinase activity inhibition assay (ADP-Glo); assay type: biochemical; conditions: read-out: CDK5 kinase inhibitory activity (IC50)
Sequence of CDK5/p35NCK (Q00535 whole entry): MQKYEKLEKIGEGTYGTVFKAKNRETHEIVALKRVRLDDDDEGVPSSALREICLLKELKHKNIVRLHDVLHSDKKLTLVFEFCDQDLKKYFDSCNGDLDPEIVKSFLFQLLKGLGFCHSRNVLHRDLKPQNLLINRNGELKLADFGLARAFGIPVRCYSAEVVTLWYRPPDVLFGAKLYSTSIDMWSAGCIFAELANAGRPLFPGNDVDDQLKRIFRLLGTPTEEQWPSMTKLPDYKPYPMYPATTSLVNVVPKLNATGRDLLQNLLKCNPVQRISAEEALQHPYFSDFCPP
Sequence of CDK5/p35NCK (Q15078 whole entry partner): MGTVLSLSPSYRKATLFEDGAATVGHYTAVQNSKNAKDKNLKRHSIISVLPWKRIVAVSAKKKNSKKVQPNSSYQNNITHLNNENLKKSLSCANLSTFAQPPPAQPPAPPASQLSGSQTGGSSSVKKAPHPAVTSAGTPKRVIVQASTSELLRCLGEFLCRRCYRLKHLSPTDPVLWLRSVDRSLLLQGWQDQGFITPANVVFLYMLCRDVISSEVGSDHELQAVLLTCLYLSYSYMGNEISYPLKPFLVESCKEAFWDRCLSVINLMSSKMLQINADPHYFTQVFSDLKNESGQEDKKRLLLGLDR
Protocol: (§3) 3) CDK5, CDK9 and CDK16 Kinase Activity Inhibition Assay
(§4) CDK5/p35NCK, CDK9/CycT1 and CDK16/CycY protein kinase activities were determined using the ADP-Glo Kinase Assay. Dilute the positive compound and the test compound (10 mM stock solution) 25-fold with 100% DMSO, make a 4-fold serial dilution in a 96-well dilution plate, and add 1 μL of the compound to 49 μL of kinase reaction buffer (1 mM Tris, 20 mM MgCl2, 0.10% BSA and 0.5 mM DTT) on a microplate shaker for 20 min. Transfer 2 μL of 2× kinase to the 384-well reaction plate, add 1 μL of the test compound to the 384-well reaction plate, centrifuge at 1000 rpm/min for 1 min, and incubate at 25° C. for 10 min. Transfer 1 μL of the 4× substrate mix to the 384-well reaction plate, centrifuge at 1000 rpm/min for 1 min, and incubate at 25° C. for 60 min. Transfer 4 μL of ADP-Glo to the 384-well reaction plate to centrifuge at 1000 rpm/min for 1 min, and incubate at 25° C. for 40 min. Transfer 8 μL of detection solution to the 384-well reaction plate to centrifuge at 1000 rpm/min for 1 min, and incubate at 25° C. for 40 min. The RLU (Relative luminescence unit) signal was read using a Biotek multifunctional plate reader. Signal intensity is used to characterize the degree of kinase activity. Compound inhibition rate data: % inhibition rate=[1−(compound mean RLU−positive control mean RLU)/(negative control mean RLU−positive control mean RLU)]*100. Taking the log value of the concentration as the X axis and the percentage inhibition rate as the Y axis, the log(inhibitor) vs. response-Variable slope of the analysis software GraphPad Prism 5 was used to fit the dose-response curve to obtain the IC50 value of each compound on the enzyme activity.

CDK9/CycT1 = CDK9/CycT1 (Homo sapiens, UniProt P50750); assay: CDK9 kinase activity inhibition assay (ADP-Glo); assay type: biochemical; conditions: read-out: CDK9 kinase inhibitory activity (IC50)
Sequence of CDK9/CycT1 (P50750 whole entry): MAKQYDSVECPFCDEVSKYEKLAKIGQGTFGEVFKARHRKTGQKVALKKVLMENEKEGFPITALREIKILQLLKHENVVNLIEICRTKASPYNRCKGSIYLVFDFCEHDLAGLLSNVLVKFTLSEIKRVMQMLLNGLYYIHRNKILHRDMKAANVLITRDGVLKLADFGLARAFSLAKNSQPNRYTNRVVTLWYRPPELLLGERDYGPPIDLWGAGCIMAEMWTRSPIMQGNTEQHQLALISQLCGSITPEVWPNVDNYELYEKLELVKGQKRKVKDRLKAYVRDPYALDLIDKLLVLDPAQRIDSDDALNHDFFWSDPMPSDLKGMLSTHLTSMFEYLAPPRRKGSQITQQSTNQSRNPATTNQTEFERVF
Sequence of CDK9/CycT1 (O60563 whole entry partner): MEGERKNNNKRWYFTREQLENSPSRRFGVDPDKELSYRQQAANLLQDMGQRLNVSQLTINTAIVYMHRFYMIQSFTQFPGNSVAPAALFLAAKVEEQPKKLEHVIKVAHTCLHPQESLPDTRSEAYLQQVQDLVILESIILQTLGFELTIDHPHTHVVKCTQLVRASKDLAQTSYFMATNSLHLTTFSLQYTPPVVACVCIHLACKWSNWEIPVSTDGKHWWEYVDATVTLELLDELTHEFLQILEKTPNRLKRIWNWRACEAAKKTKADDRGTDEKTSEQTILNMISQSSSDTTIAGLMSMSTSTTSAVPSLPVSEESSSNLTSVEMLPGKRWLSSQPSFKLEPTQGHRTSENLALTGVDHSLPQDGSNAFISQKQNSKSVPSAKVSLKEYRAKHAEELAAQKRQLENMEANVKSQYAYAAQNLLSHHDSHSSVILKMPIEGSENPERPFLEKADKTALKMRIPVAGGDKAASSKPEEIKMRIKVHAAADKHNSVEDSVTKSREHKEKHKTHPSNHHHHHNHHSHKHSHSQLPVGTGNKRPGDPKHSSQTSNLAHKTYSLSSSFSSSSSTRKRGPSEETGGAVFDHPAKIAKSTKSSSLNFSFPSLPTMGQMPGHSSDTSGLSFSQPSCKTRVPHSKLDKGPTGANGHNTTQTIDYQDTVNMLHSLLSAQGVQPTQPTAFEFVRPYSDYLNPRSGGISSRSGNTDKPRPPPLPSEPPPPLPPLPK
Protocol: as §3, §4

CDK16/CycY = CDK16/CycY (Homo sapiens, UniProt Q00536); assay: CDK16 kinase activity inhibition assay (ADP-Glo); assay type: biochemical; conditions: read-out: CDK16 kinase inhibitory activity (IC50)
Sequence of CDK16/CycY (Q00536 whole entry): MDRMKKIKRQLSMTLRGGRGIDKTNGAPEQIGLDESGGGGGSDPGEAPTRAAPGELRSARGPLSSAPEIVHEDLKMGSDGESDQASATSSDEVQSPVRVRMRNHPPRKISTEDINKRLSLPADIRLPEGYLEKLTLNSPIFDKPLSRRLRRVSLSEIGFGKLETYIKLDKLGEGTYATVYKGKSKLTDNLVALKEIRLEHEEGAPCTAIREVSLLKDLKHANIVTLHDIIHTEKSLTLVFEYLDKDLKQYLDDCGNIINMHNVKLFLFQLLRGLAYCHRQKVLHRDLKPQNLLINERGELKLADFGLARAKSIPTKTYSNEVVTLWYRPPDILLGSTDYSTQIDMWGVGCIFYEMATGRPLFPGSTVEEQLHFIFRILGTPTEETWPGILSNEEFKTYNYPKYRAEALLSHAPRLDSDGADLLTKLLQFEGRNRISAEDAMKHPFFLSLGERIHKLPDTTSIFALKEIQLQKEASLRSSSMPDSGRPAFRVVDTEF
Sequence of CDK16/CycY (Q8ND76 whole entry partner): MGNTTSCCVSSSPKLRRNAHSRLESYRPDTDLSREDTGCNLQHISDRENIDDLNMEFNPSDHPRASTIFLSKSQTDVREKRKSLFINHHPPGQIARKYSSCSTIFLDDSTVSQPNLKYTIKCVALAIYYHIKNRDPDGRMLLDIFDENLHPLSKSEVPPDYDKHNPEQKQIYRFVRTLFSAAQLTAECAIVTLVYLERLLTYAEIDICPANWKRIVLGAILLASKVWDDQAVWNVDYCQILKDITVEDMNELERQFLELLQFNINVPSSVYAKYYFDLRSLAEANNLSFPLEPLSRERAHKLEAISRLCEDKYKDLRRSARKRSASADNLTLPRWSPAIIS
Protocol: as §3, §4

TRKA = TRKA (Homo sapiens, UniProt P04629); assay: TRKA kinase activity inhibition assay (caliper mobility shift); assay type: biochemical
Sequence of TRKA (P04629 33-796): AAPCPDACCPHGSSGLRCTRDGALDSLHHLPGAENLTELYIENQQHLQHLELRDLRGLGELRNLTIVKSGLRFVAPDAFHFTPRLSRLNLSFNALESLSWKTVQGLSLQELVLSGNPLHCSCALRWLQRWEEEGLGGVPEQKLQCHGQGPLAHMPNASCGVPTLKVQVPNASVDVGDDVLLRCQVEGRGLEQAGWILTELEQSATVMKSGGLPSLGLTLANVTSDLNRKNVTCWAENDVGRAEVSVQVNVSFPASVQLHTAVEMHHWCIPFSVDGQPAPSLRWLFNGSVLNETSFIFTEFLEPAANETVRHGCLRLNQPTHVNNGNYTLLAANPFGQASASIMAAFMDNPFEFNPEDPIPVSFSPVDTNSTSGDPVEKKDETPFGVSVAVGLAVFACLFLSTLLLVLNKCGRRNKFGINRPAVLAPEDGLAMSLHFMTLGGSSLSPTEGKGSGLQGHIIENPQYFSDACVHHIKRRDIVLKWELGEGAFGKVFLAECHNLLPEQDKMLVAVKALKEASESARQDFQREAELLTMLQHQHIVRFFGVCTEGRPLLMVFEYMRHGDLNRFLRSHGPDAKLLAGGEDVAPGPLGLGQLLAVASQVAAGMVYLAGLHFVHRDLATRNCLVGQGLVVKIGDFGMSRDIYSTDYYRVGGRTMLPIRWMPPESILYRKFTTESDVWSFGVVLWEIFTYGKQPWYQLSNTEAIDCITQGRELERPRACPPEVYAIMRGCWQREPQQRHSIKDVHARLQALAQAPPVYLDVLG
Protocol: 2) TRKA Kinase Activity Inhibition Assay
TRKA protein kinase activity was measured by caliper mobility shift assay. Compounds were dissolved in DMSO to make up 10 mM stock solutions. Prepare 1× kinase reaction buffer to serially dilute compounds. 250 nL 100× final concentration of the test compounds were transferred to destination plate 3573 by dispenser Echo 550. Prepare a 2.5× final concentration of kinase solution with 1× kinase buffer. Add 10 μL of 2.5× final kinase solution to compound wells and positive control wells; add 10 μL of 1× kinase buffer to negative control wells. Centrifuge at 1000 rpm for 30 s, shake and mix the reaction plate and incubate at room temperature for 10 min. Prepare a mixture of ATP and kinase substrate solution at 5/3× final concentration with 1× kinase buffer. The reaction was initiated by adding 15 μL of the mixed solution. Centrifuge the 384-well plate at 1000 rpm for 30 s, shake and mix well, and incubate at room temperature for the corresponding time. Add 30 μL of stop solution to stop the kinase reaction, centrifuge at 1000 rpm for 30 s, mix by shaking, and read the conversion rate data with Caliper EZ Reader. Convert conversion to inhibition data (% inhibition=(max DMSO well conversion−sample well conversion)/(max DMSO well conversion−min negative control conversion)*100). Wherein max refers to the conversion rate of the DMSO control, and min refers to the conversion rate of the non-enzymatic control. Draw a curve with the concentration and inhibition rate of the compound as abscissa and ordinate, and use XLFit excel add-in version 4.3.1 software to fit the curve and calculate IC50.

in vivo = conditions: male, SD, rat, po, 3 mg/kg
Protocol: (§5) Instruments: XEVO TQ-S LC/MS instrument produced by Waters. All measurement data is collected and processed by Masslynx V4.1 software, and the data is calculated and processed by Microsoft Excel. Using WinNonLin 8.0 software, the statistical moment method was used to calculate the pharmacokinetic parameters. Mainly include kinetic parameters Tmax, T1/2, Cmax, AUClast etc. Column: ACQUITY UPLC BEH C18 (2.1 mm×50 mm, 1.7 μm); column temperature 40° C.; mobile phase A is water (0.1% formic acid), mobile phase B is acetonitrile, flow rate is 0.350 ml/min, gradient elution is adopted, the elution gradient is 0.50 min: 10% B; 1.50 min: 10% B; 2.30 min: 95% B; 2.31 min: 10% B; 3.00 min: stop. Injection volume: 5 μL.
(§6) Animals: 3 male SD rats with a weight range of 200-220 g. After purchase, they will be kept in the laboratory of the Experimental Animal Center for 2 days and then used. They will be fasted for 12 hours predose and 4 hours after dosing. Drinking water is free during the test. After the rats were gavage, blood samples were taken according to the established time point.
(§7) Solvent: 0.5% Methylcellulose (aqueous solution containing 0.4% Tween 80 and 1% ethanol). Preparation of the solution for intragastrical administration: accurately weigh the compound, add it to the solvent, and use ultrasound at room temperature for 5 minutes to completely dissolve the drug, and prepare a 0.3 mg/ml medicinal solution.
(§8) A single administration was also used to study the pharmacokinetics of the drug sample in rats.
(§9) After intragastrical administration, blood was taken from the orbit at 0.25, 0.5, 1, 2, 4, 9, 12 and 24 hours, and placed in a plastic centrifuge tube pretreated with sodium heparin. After centrifugation, the supernatant plasma was used for LC-MS/MS analysis.
(§10) Accurately weigh the compounds to prepare different concentrations, perform quantitative analysis on mass spectrometry to establish a standard curve, and then test the concentration of the above-mentioned compound in the plasma to obtain the compound concentration at different time points. All measurement data are collected and processed by relevant software, and the statistical moment method is used to calculate the pharmacokinetic parameters (mainly including kinetic parameters Tmax, T1/2, Cmax, AUClast etc).

[1] = Pharmacokinetic study in rats (intragastrical administration, plasma LC-MS/MS); conditions: male, SD, rat, po, 3 mg/kg
Protocol: as §5, §6, §7, §8, §9, §10

[2] = read-out: TRKA kinase inhibitory activity (IC50)

Compound | IC50 (CDK2/CycA2) | IC50 (CDK4/CycD3) | IC50 (CDK6/cycD3) | IC50 (CDK5/p35NCK) | IC50 (CDK9/CycT1) | IC50 (CDK16/CycY) | IC50 (TRKA) | AUC(0-t) (in vivo) | Cmax (in vivo) | Tmax (in vivo) | half-life [1] | IC50 (TRKA; [2]) | AUC(0-t) [1] | Cmax [1] | Tmax [1]
CC(=O)c1c(C)c2cnc(Nc3ccc4c(c3)OC[C@@H]3CN(C5CCN(C)CC5)CCN43)nc2n(C2CCCC2)c1=O [Compound 2S] | < 100 nM | < 10 nM | < 10 nM | < 50 nM | < 20 nM | < 100 nM | < 10 nM | 1910 ng·h/mL | 114 ng/mL | 13.3 h | > 720 min | – | – | – | –
CC(=O)c1c(C)c2cnc(Nc3ccc4c(c3)OC[C@H]3CN(C5CCN(C(C)=O)CC5)CCN43)nc2n(C2CCCC2)c1=O [Compound 5R] | < 100 nM | < 10 nM | < 20 nM | < 200 nM | < 50 nM | < 200 nM | – | – | – | – | 175 min | < 10 nM | 4350 ng·h/mL | 438 ng/mL | 6.67 h
CC(=O)c1c(C)c2cnc(Nc3ccc4c(c3)OC[C@@H]3CN(C5CN(C)C5)CCN43)nc2n(C2CCCC2)c1=O [Compound 7S] | < 100 nM | < 10 nM | < 10 nM | < 100 nM | < 50 nM | < 100 nM | – | – | – | – | 191 min | < 10 nM | 1940 ng·h/mL | 133 ng/mL | 9.33 h
